Measured values as given in patent US20030158120A1, “Combination product comprising melagatran and a factor xa inhibitor” (AstrZeneca AB, priority 2000, published 2003).

How the values were obtained:
human plasma = assay: Prothrombin time clotting assay; assay type: biochemical
Protocol: Human blood from healthy volunteers, both men and women, was collected in 50 mL conical plastic tubes containing 5 mL of 0.13 mol/L of buffered tri-sodium citrate. The blood was immediately chilled on ice and centrifuged at 2000×g for 20 minutes.
100 μL of human plasma was pre-warmed to 37° C. for 180 seconds before coagulation was initiated by the addition of 200 μL pre-warmed assay reagent (Thromboplastin-S, ISI 1.1, Biopool Umea, Sweden). The prothrombin time (PT) was determined on a mechanical coagulometer, coupled to a CR-A calculator, CR 10 printer and a PR60 heat block (KC 10A Amelung, Germany). Each clotting test was performed in duplicate.
In order to determine the relative potency of each inhibitor and a 50:50 mixture thereof, the concentration required to double the prothrombin time (IC50) was determined as follows: The ratio of prothrombin time in control plasma (PT0) to the prothrombin time in the presence of different inhibitor concentrations (PTinhibitor) were plotted against the inhibitor concentration (log transformed) and fitted to sigmoidal dose-response curves from which IC50 values were calculated according to the equation:
where y=(PTO)/(PT) with a range from 1 to 0; a=maximal range i.e. 1, when PTmela is equal to PT0; s=the slope of the dose-response curve, x=log concentration of inhibitor, IC50=the concentration of melagatran that doubles the prothrombin time. The calculations were processed on a PC using the software program GraFit® Erithacus Version 3.0 (Robin Leatherbarrow, Imperial Collage of Science, Technology & Medicine, London).

SMILES | melting point | IC50 (human plasma; from sigmoidal dose-response curves of PT0/PTinhibitor, human plasma, total concentration for the mixture, read-out: IC50 (concentration required to double the prothrombin time)) | Prothrombin time (human plasma; plasma conc. 0.23 μmol/L) | Prothrombin time (human plasma; plasma conc. 0.47 μmol/L) | Prothrombin time (human plasma; plasma conc. 0.70 μmol/L) | Prothrombin time (human plasma; plasma conc. 0.93 μmol/L) | Prothrombin time (human plasma; plasma conc. 1.17 μmol/L) | Prothrombin time (human plasma; plasma conc. 1.40 μmol/L) | Prothrombin time (human plasma; plasma conc. 1.63 μmol/L) | Prothrombin time (human plasma; plasma conc. 1.86 μmol/L) | Prothrombin time (human plasma; plasma conc. 2.10 μmol/L) | PT (human plasma; single inhibitor at 2.33 μmol/L in human platelet poor plasma)
O=C(c1ccc(-c2cc[n+]([O-])cc2)cc1)N1CCN(S(=O)(=O)c2cc3cc(Cl)ccc3[nH]2)CC1 [Example 1, 4-{4-[4(5-Chloroindol-2-ylsulfonyl)piperazine-1-carbonyl]phenyl}-pyridine-1-oxide] | 265 to 267 °C | – | – | – | – | – | – | – | – | – | – | –
N=C(N)c1ccc(CNC(=O)[C@@H]2CCN2C(=O)[C@H](NCC(=O)O)C2CCCCC2)cc1 [melagatran, HOOC—CH2—(R)Cgl-Aze-Pab-H] | – | 0.74 µM | 18.1 s | 21.8 s | 25.4 s | 32.6 s | 43.2 s | 53.8 s | 65.3 s | 76.3 s | 87.2 s | 95.2 s
